From patent US10034860B2, “Estrogen receptor modulator for the treatment of locally advanced or metastatic estrogen receptor positive breast cancer” (Genentech, Inc., priority 2013, dated 2018) come the findings set out here.

The nature of one data set: oral bioavailability. Particulars: in vivo.
Data set [1] deals with xenograft models of ER+ breast cancer. The data set is described as follows: tamoxifen-sensitive and tamoxifen-resistant xenograft models of ER+ breast cancer. It counts as in vivo.
The next data set has as its system breast cancer cell lines. Nature of the data set: breast tumor cell proliferation. The class given is cell-based.
Data set [2] concerns advanced or metastatic ER+ (HER2−) breast cancer. Nature of the data set: Phase I clinical trial: safety and clinical benefit. It counts as in vivo. An excerpt:
The MTD and/or RP2D will be defined as the dose with ≤1 out of 6 patients with Dose Limiting Toxicity (DLT). Dose Limiting Toxicity (DLT) Definition: Any Grade ≥3 non-hematology toxicity (excluding alopecia); Any Grade ≥3 hematology toxicity >7 days; Any Grade toxicity that leads to study drug interruption >7 days.
Disease assessments will be performed. Imaging studies will include a CT scan of the chest, abdomen, and pelvis, plus a bone scan. Radiographic confirmation of objective tumor response or disease progression will be based on RECIST v1.1 (Eisenhauer, 2009). For new bone lesions detected on bone scans, a second imaging modality (e.g., CT or MRI) will be required to confirm progression.
(§1) A preliminary analysis of the first 41 patients enrolled in the Phase I study described in Example 1 was conducted. 41 patients were enrolled in the Phase I portion of the study, across 9 different dose escalation cohorts. The patients were postmenopausal women with advanced or metastatic breast cancer that had previously relapsed or progressed following prior therapy with the aromatase inhibitors anastrozole, exemestane, and letrozole (90%), chemotherapy (68%), including capecitabine (27%), tamoxifen (54%), fulvestrant (41%), everolimus (19%), and also other investigational agents (17%).

For data set [3], the system named is ER and Ki-67 levels in tumor specimens. Nature of the data set: Phase I clinical trial: tumor biopsies, ER and Ki-67 levels. Set-up: species or system postmenopausal women. The settings on record: in vivo.
Source text: Pre- and post-treatment tumor biopsies (soft tissue or visceral lesions) will be collected to evaluate: • Tumor Histology; tumor vs. stroma, vs fibrotic tissue • ERα and PR protein levels by immunohistochemistry or immunofluorescence • Proliferative Index (Ki67) • ER target gene modulation: Examples of ER target genes thay maybe monitored include, but are not limited to: AGR2, AREG, C3, CCND1, CXCL12, ERBB2, GREB1, IL6, IRS1, PDZK1, PGR, SEMA3B, TFF1, TFF2, TFF3, TOP2A, WISP2. Circulating Tumor DNA (ctDNA)
as §1

Details of data set [4]: species or system postmenopausal women. Particulars: in vivo. As for the experimental part:
If the safety and PK profile seen in the Phase I (dose escalation) portion of the study are deemed favorable to justify further continuation of the study, dose escalation will be followed by an expansion cohort to further confirm safety and tolerability and assess preliminary evidence of antitumor activity (Phase IIa).
as §1

As for `CC/C(=C(/c1ccc(/C=C/C(=O)O)cc1)c1ccc2[nH]ncc2c1)c1ccc(F)cc1Cl` [(E)-3-(4-((E)-2-(2-chloro-4-fluorophenyl)-1-(1H-indazol-5-yl)but-1-en-1-yl)phenyl)acrylic acid], in the data set “oral bioavailability”, the oral bioavailability result was “good oral bioavailability”. Also, in data set [1] (all doses, xenograft models), the tolerability result is listed as “very well tolerated”. In data set [1] (all xenograft models), this molecule registered an efficacious dose range of 10 to 100 mg/kg/day. For the same molecule, the anti-tumor activity result in data set [1] (tamoxifen-sensitive and tamoxifen-resistant xenograft models) is reported as “dose dependent anti-tumor activity”. In the data set on breast cancer cell lines, the “breast tumor cell proliferation” value is recorded as “inhibition of breast tumor cell proliferation”. Further, in data set [2] (41 patients, progressed on a median of 4 prior treatments), the safety and tolerability result was “safe and well tolerated”. Also, in data set [2] (all patients, preliminary analysis), the “preliminary overall clinical benefit rate” value is on record as 42%. In addition, in data set [2] (patients previously treated with fulvestrant), the “preliminary clinical benefit rate” value came to 35%. In addition, the “ER and Ki-67 levels in tumor specimens” value in data set [3] is listed as “reduced”. In data set [4] (female, human), the “dose at which target plasma concentrations were achieved” value was no less than 600 mg QD. The pharmacokinetic profile entry in data set [4] (po) is “linear and dose proportional”.
Regarding `C[C@]12CC[C@@H]3c4ccc(O)cc4C[C@@H](CCCCCCCCC[S+]([O-])CCCC(F)(F)C(F)(F)F)[C@H]3[C@@H]1CC[C@@H]2O` (stereo partly drawn) [fulvestrant, reference compound], the “efficacy compared with the acrylic acid compound” value in data set [1] (tamoxifen-resistant xenograft models) is “less efficacious”.
